Measured values taken from ChEMBL document CHEMBL4303773 (Nature, 2020).

Assays:
[1] = target: T1, Muscarinic acetylcholine receptor M5 (Homo sapiens, UniProt P08912); assay: Activity of compound against Muscarinic acetylcholine receptor M5 (CHRM5) by displacement of 3H-QNB
T1 sequence (P08912 whole entry): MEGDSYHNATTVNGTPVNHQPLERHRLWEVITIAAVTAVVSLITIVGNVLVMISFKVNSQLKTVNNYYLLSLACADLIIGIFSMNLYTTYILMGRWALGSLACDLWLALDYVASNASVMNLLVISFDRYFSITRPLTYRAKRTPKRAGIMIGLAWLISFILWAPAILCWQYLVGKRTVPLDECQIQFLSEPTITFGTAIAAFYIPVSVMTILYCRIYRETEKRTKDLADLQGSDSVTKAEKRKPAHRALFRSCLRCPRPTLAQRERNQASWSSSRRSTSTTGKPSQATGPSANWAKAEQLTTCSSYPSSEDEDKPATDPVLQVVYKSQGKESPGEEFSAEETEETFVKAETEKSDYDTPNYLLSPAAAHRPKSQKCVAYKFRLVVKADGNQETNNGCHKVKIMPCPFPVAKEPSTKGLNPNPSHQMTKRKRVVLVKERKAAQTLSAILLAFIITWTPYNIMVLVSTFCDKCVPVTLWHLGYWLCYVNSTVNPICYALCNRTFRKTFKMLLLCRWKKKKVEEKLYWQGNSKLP

[2] = target: T2, Muscarinic acetylcholine receptor M2 (Homo sapiens, UniProt P08172); assay: Activity of compound against Muscarinic acetylcholine receptor M2 (CHRM2) by displacement of 3H-QNB
T2 sequence (P08172 whole entry): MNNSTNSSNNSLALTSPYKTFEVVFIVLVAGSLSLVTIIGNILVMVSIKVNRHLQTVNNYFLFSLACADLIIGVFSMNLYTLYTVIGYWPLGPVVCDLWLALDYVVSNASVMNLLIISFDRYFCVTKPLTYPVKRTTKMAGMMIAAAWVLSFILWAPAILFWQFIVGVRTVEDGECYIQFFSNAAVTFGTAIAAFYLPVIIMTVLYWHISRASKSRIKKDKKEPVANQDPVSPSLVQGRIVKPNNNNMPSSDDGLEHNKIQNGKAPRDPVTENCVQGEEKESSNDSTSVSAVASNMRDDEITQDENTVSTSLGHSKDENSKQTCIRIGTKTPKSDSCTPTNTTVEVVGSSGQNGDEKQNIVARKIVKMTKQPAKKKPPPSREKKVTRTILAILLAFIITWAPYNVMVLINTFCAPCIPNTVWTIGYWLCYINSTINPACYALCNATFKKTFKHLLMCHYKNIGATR

[3] = target: T3, Alpha-2A adrenergic receptor (Homo sapiens, UniProt P08913); assay: Activity of compound against Alpha-2A (ADRA2A) adrenergic receptor by displacement of [3H]-rauwolscine
T3 sequence (P08913 whole entry): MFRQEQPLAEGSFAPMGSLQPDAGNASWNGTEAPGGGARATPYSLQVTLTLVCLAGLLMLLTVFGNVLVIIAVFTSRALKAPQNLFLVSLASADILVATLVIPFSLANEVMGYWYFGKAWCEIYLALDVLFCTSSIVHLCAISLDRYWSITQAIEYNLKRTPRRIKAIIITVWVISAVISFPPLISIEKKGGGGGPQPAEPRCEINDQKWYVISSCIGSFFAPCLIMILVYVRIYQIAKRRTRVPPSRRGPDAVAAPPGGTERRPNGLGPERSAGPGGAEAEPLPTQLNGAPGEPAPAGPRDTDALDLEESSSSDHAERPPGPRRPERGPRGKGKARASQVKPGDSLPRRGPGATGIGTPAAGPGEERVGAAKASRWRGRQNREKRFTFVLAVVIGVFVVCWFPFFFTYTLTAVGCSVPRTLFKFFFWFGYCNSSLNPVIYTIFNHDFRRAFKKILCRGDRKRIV

[4] = target: Sigma intracellular receptor 2 (Homo sapiens, UniProt Q5BJF2); assay: Displacement of [3H]-DTG from the Sigma2 receptor
Sequence of Sigma intracellular receptor 2 (Q5BJF2 whole entry): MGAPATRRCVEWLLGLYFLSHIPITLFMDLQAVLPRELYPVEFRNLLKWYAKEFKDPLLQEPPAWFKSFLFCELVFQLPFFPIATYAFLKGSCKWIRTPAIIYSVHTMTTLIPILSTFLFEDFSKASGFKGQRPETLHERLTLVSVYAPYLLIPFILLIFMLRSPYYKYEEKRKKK

[5] = target: Muscarinic acetylcholine receptor M3 (Homo sapiens, UniProt P20309)
Sequence of Muscarinic acetylcholine receptor M3 (P20309 whole entry): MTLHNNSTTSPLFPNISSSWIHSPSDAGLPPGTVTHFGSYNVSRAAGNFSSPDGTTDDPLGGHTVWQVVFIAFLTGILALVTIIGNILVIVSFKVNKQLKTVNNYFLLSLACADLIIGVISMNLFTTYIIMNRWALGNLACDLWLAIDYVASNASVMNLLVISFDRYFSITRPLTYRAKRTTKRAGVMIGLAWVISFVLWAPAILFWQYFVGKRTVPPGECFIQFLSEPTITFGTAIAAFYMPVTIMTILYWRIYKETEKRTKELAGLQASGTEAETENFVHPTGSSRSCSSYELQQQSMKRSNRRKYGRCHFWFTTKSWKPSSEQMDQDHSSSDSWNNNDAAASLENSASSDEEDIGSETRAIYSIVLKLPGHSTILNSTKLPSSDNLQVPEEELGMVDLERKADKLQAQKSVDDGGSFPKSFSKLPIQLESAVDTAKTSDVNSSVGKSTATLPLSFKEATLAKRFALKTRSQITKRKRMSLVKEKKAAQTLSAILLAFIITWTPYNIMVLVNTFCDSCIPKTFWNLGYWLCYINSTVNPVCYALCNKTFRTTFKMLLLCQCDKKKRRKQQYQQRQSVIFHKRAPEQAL

[6] = target: T4, Alpha-2B adrenergic receptor (Homo sapiens, UniProt P18089)
T4 sequence (P18089 whole entry): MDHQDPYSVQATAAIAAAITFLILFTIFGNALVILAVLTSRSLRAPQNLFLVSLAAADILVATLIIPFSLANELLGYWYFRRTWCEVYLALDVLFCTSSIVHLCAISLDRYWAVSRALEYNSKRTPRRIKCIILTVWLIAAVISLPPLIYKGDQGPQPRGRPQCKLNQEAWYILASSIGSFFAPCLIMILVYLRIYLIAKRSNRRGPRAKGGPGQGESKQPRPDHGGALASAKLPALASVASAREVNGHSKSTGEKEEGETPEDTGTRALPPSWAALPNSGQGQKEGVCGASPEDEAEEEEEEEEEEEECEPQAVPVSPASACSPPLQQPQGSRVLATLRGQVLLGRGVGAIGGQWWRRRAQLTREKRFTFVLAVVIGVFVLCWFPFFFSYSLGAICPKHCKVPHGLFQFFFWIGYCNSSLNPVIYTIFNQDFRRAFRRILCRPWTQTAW

[7] = tested on: Vero C1008; assay: Cytotoxicity of compound against Vero E6 cells by MTT assay.; settings: chlorocebus sabaeus, vero c1008
[8] = target: T5, Muscarinic acetylcholine receptor M4 (Homo sapiens, UniProt P08173); assay: Activity of compound against Muscarinic acetylcholine receptor M4 (CHRM4) by displacement of 3H-QNB
T5 sequence (P08173 whole entry): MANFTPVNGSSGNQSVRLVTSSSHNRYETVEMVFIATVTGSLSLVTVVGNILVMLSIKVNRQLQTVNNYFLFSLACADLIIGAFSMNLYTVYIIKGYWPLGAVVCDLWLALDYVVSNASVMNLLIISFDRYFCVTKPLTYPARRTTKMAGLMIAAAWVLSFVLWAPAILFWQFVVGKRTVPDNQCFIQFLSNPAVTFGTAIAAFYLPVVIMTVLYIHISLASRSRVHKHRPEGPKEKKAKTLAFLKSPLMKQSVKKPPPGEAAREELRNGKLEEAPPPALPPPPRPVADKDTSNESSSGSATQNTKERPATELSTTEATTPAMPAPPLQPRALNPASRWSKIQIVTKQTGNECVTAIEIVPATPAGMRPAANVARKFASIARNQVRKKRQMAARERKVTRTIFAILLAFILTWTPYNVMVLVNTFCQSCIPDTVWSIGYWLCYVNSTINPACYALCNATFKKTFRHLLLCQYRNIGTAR

[9] = target: Sigma non-opioid intracellular receptor 1 (Homo sapiens, UniProt Q99720)
Sequence of Sigma non-opioid intracellular receptor 1 (Q99720 whole entry): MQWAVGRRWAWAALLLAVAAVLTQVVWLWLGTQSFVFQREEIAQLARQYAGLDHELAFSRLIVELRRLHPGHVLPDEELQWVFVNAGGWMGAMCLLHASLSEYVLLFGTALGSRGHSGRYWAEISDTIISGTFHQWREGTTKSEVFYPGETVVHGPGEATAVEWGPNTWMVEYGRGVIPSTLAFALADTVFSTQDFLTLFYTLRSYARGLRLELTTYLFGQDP
Description: Displacement of [3H]-pentazocin from the Sigma1 receptor

[10] = target: Voltage-gated inwardly rectifying potassium channel KCNH2 (Homo sapiens, UniProt Q12809)
Sequence of Voltage-gated inwardly rectifying potassium channel KCNH2 (Q12809 whole entry): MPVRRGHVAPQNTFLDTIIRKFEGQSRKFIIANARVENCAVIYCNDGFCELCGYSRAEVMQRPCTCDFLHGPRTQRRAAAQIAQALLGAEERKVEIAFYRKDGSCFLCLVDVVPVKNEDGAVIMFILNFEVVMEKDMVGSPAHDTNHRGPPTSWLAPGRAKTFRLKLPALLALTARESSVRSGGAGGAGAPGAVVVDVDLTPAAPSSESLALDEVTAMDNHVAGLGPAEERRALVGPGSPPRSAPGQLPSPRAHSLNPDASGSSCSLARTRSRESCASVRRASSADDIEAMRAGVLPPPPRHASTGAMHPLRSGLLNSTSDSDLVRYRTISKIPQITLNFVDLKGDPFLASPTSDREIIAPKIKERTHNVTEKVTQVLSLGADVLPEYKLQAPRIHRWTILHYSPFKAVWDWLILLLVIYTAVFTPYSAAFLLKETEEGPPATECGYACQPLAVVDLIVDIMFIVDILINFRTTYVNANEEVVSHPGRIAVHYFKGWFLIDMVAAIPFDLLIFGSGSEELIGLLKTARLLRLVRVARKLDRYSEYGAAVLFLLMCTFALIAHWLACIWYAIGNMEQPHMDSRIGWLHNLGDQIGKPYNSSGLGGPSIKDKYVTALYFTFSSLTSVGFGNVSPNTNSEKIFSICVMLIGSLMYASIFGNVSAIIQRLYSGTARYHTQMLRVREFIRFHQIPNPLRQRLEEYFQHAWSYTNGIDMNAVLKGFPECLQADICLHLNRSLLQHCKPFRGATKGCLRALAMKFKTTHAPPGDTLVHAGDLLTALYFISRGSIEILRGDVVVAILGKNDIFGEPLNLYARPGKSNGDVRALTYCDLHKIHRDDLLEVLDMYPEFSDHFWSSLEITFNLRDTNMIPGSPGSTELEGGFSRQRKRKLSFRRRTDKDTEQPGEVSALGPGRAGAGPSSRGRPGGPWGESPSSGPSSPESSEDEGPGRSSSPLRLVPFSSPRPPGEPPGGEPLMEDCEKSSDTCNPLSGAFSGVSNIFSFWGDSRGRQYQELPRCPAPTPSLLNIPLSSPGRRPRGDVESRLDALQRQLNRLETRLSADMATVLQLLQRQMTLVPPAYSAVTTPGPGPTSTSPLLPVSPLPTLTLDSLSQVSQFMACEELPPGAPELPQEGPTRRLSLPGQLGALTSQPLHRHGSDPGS
Description: hERG binding assays: Displacement of [3H]-Dofetilide (5 nM final) from hERG membranes obtained from HEK293 cells

Compound: CCCN1CCC=C(c2cc(-c3ccc(C)cc3)no2)C1
- Ki [1]: 28.2 µM
- Ki [2]: 24 µM
- Ki [3]: 8.32 µM
- Ki [4]: 0.794 µM
- Ki [5]: 24 µM
- Ki [6]: 20.4 µM
- pCC50 [7]: ~ 2.928
- Ki [8]: 24.5 µM
- Ki [9]: 0.002 µM
- Ki [10]: 10 µM
